According to patent US20220144853A1, “IMIDAZOLINE DERIVATIVES AS CXCR4 MODULATORS” (Université de Paris, priority 2019, published 2022):
Structures can show the parent of a compound that is named as a salt.

What was measured:
IL-1β = assay: Cytokine production by R848-activated PBMCs, LEGENDplex Human Inflammation panel 1: IL-1β; type: cell-based; conditions: Homo sapiens, PBMC, PBMCs from 2 healthy donors, R848 overnight, read-out: IC50 (μM) 1L-1β
Procedure: (§1) 2) The PBMCs used herein were prepared as described in part A “immune cells preparation”, section 2) above. PBMCs were seeded at 4.10^6/mL. […] Cells were then stimulated with the TLR7/8 agonist resiquimod—R848 (Sigma-Aldrich, MO, USA) at 5 μg/mL.
(§2) Cytokine expression levels were assessed using LEGENDplex Human inflammation panel 1 Kit (BioLegend, California, USA), which is a bead-based multiplex assay, using fluorescence-encoded beads. […] First, supernatants of R848-stimulated PBMCs were harvested after 24 h of stimulation and frozen at −20° C. for storage. Supernatants were dispensed into a 96-well V-bottom plate. Protocol pursued as per manufacturer recommendations (Manual for BioLegend LEGENDplex, Multi-Analyte Flow Assay Kit, Human Inflammation Panel 1, version 750000393_R01).

IFN-γ = assay: Cytokine production by R848-activated PBMCs, LEGENDplex Human Inflammation panel 1: IFN-γ; type: cell-based; conditions: Homo sapiens, PBMC, PBMCs from 2 healthy donors, R848 overnight
Procedure: as §1, §2

TNF-α = assay: Cytokine production by R848-activated PBMCs, LEGENDplex Human Inflammation panel 1: TNF-α; type: cell-based; conditions: Homo sapiens, PBMC, PBMCs from 2 healthy donors, R848 overnight
Procedure: as §1, §2

IL-18 = assay: Cytokine production by R848-activated PBMCs, LEGENDplex Human Inflammation panel 1: IL-18; type: cell-based; conditions: Homo sapiens, PBMC, PBMCs from 2 healthy donors, R848 overnight
Procedure: as §1, §2

[1] = tested on: IL-1β, IFN-γ, TNF-α, IL-10, IL-12p70, IL-18 and IL-23; assay: Cytokine production by R848-activated PBMCs, LEGENDplex: statements on all inhibited cytokines together; type: cell-based; conditions: Homo sapiens, PBMC, PBMCs from two healthy donors, read-out: IC50 on the expression of cytokines, on all such cytokines
Procedure: as §1, §2

IL-23 = assay: Cytokine production by R848-activated PBMCs, LEGENDplex Human Inflammation panel 1: IL-23; type: cell-based; conditions: Homo sapiens, PBMC, PBMCs from 2 healthy donors, R848 overnight
Procedure: as §1, §2

[2] = tested on: IFN production by activated PBMCs; assay: IFN production by R848-activated PBMCs from healthy donors, twINNE reporter cell line; type: cell-based, human; conditions: Homo sapiens, PBMC, means of two results over 2 healthy donors, R848 5 μg/mL, IT1t: mean over all experiments, read-out: IC50 of anti-inflammatory activity (IFN production)
Summary of the method: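 Human PBMCs (4.10^6/mL, RPMI/10% FBS, 37° C) stimulated with R848 at 5 μg/mL; supernatants collected after 24 h. Functional IFN measured on twINNE cells (ISRE-driven luciferase reporter) after 24 h culture by bioluminescence; IC50 from variable-slope dose-response fits.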

IL-12p70 = assay: Cytokine production by R848-activated PBMCs, LEGENDplex Human Inflammation panel 1: IL-12p70; type: cell-based; conditions: Homo sapiens, PBMC, PBMCs from 2 healthy donors, R848 overnight
Procedure: as §1, §2

IL-10 = assay: Cytokine production by R848-activated PBMCs, LEGENDplex Human Inflammation panel 1: IL-10; type: cell-based; conditions: Homo sapiens, PBMC, PBMCs from 2 healthy donors, R848 overnight
Procedure: as §1, §2

CC1(C)CN=C(SCC2=CSC3=N[C@H]4CCCC(C4)N23)N1 (racemic) (as salt: hydrochloride) [Example 23, cis-3-(((5,5-dimethyl-4,5-dihydro-1H-imidazol-2-yl)thio)methyl)-6,7,8,9-tetrahydro-5H-5,9-methanothiazolo[3,2-a][1,3]diazocine dihydrochloride]
melting point: 240 to 245 °C

CCCCC1CN=C(SCC2=CSC3=N[C@H]4CCCCC4N23)N1 (mixture of isomers) (as salt: hydrochloride) [Example 54, trans-3-(((5-butyl-4,5-dihydro-1H-imidazol-2-yl)thio)methyl)-4a,5,6,7,8,8a-hexahydrobenzo[4,5]imidazo[2,1-b]thiazole dihydrochloride]
melting point: 226 to 230 °C

C1=C(CSC2=NCC(Cc3ccccc3)N2)N2C(=N[C@H]3CCCCC32)S1 (mixture of isomers) (as salt: hydrochloride) [Example 55, trans-3-(((5-benzyl-4,5-dihydro-1H-imidazol-2-yl)thio)methyl)-4a,5,6,7,8,8a-hexahydrobenzo[4,5]imidazo[2,1-b]thiazole dihydrochloride]
melting point: 137 to 142 °C

C1=C(CSC2=NCCN2)N2C(=N[C@H]3CCCCC32)S1 (mixture of isomers) (as salt: hydrochloride) [Example 59, trans-3-(((4,5-dihydro-1H-imidazol-2-yl)thio)methyl)-4a,5,6,7,8,8a-hexahydrobenzo[4,5]imidazo[2,1-b]thiazole dihydrochloride]
melting point: 115 to 120 °C

CC(C)[C@@H]1N=C2SC=C(CSC3=NCC(C)(C)N3)N2[C@H]1C(C)C (racemic) (as salt: hydrochloride) [Example 62, trans-3-(((5,5-dimethyl-4,5-dihydro-1H-imidazol-2-yl)thio)methyl)-5,6-diisopropyl-5,6-dihydroimidazo[2,1-b]thiazole dihydrochloride]
melting point: 237 to 241 °C

CN1CCN=C1SCC1=CSC2=NC3CCCCC3N12 (racemic) (as salt: hydrochloride) [Example 63, trans-3-(((1-methyl-4,5-dihydro-1H-imidazol-2-yl)thio)methyl)-4a,5,6,7,8,8a-hexahydrobenzo[4,5]imidazo[2,1-b]thiazole dihydrochloride]
melting point: 204 to 207 °C

CC1(C)CN=C(SCC2=CSC3=N[C@H]4CCCC[C@@H]4N23)N1 (racemic) [Example 7, trans-3-(((4,4-dimethyl-4,5-dihydro-1H-imidazol-2-yl)thio)methyl)-4a,5,6,7,8,8a-hexahydrobenzo[4,5]imidazo[2,1-b]thiazole dihydrochloride]
IC50 (IL-1β): 9.9 µM | IC50 (IFN-γ): 9.8 µM | IC50 (TNF-α): 20 µM | IC50 (IL-18): 4.2 µM | IC50 [1]: ≤ 20 µM | IC50 (IL-23): 2.9 µM | IC50 [2]: ≤ 10 µM | IC50 (IL-12p70): 6.7 µM | IC50 (IL-10): 5.6 µM

CN1CCN=C1SCC1=CSC2=NC3CCCCC3N12 (racemic) [Example 63, trans-3-(((1-methyl-4,5-dihydro-1H-imidazol-2-yl)thio)methyl)-4a,5,6,7,8,8a-hexahydrobenzo[4,5]imidazo[2,1-b]thiazole dihydrochloride]
IC50 (IL-1β): 2.8 µM | IC50 (IFN-γ): 2.7 µM | IC50 (IL-18): 1.3 µM | IC50 (IL-23): 0.69 µM | IC50 [2]: ≤ 10 µM | IC50 (IL-12p70): 1.2 µM

CC1(C)CN2C(CSC3=N[C@@H]4CCCC[C@H]4N3)=CSC2=N1 [Example 3, 3-((((3aR,7aR)-3a,4,5,6,7a-hexahydro-1H-benzo[d]imidazol-2-yl)thio)methyl)-6,6-dimethyl-5,6-dihydroimidazo[2,1-b]thiazole dihydrochloride]
IC50 (IL-1β): 12 µM | IC50 (IFN-γ): 7.2 µM | IC50 (TNF-α): 11 µM | IC50 (IL-18): 6.9 µM | IC50 [1]: ≤ 20 µM | IC50 (IL-23): 1.7 µM | IC50 [2]: ≤ 10 µM | IC50 (IL-12p70): 2.6 µM | IC50 (IL-10): 11 µM

CC1(C)CN2C(CSC3=NCC(Cc4ccccc4)N3)=CSC2=N1 (centres unmarked) [Example 17, 3-(((5-benzyl-4,5-dihydro-1H-imidazol-2-yl)thio)methyl)-6,6-dimethyl-5,6-dihydroimidazo[2,1-b]thiazole dihydrochloride]
IC50 (IL-1β): 3.6 µM | IC50 (IFN-γ): 3.2 µM | IC50 (TNF-α): 4.6 µM | IC50 (IL-18): 0.54 µM | IC50 [1]: ≤ 20 µM | IC50 (IL-23): 2.2 µM | IC50 [2]: ≤ 10 µM | IC50 (IL-12p70): 0.34 µM | IC50 (IL-10): 2.7 µM

CC1(C)CN=C(SCC2=CSC3=NC(Cc4ccccc4)CN23)N1 (centres unmarked) [Example 18, 6-benzyl-3-(((5,5-dimethyl-4,5-dihydro-1H-imidazol-2-yl)thio)methyl)-5,6-dihydroimidazo[2,1-b]thiazole dihydrochloride]
IC50 (IL-1β): 5.6 µM | IC50 (IFN-γ): 6.1 µM | IC50 (TNF-α): 7.9 µM | IC50 (IL-18): 0.2 µM | IC50 [1]: ≤ 20 µM | IC50 (IL-23): 2.9 µM | IC50 [2]: 10 to 31 µM | IC50 (IL-12p70): 3.6 µM | IC50 (IL-10): 3.7 µM

CC1(C)CN2C(CCCSC3=NCC(C)(C)N3)=CSC2=N1.Cl.Cl [Example 64, 3-(3-((5,5-dimethyl-4,5-dihydro-1H-imidazol-2-yl)thio)propyl)-6,6-dimethyl-5,6-dihydroimidazo[2,1-b]thiazole dihydrochloride]
melting point: 85 to 95 °C | IC50 [2]: ≥ 31 µM
